Data set [1] is described as follows: Mouse hypercalcemia assay. The class given is in vivo. Particulars: female DBF mice, oral gavage for 6 days, serum ionized calcium 6 hours after last dosing. The text has this:
4. The Mouse Hypercalcemia Assay
(4) Materials and Method for the Mouse Hypercalcemia Assay: […]

The subject of another data set is rat osteocalcin promoter. Nature of the data set: OCN (osteocalcin) promoter assay. The data set is classed as cell-based. As to conditions: RG-15 (ROS 17/2.8) cells, 48 hr treatment, luciferase. The method, then:
3. The OCN (Osteocalcin) Promoter Assay
The OCN Promoter Assay is an indicator and marker for osteoporosis. Desired assay results are EC50 less than or equal to […]. Preferred assay results are less than […].
(3) Materials and Method for the OCN Promoter Assay:
The activation of osteocalcin by VDR ligands was evaluated in a rat osteoblast-like cell line RG-15 (ROS 17/2.8) stably expressing rat osteocalcin promoter fused with luciferase reporter gene. The stable cell lines were established as reported before (Activation of Osteocalcin Transcription involves interaction of protein kinase A- and Protein kinase C-dependent pathways. Boguslawski, G., Hale, L. V., Yu, X.-P., Miles, R. R., Onyia, J. E., Santerre R. F., Chandrasekhar, S. J. Biol. Chem. 275, 999-1006, 2000). Confluent RG-15 cells maintained in DMEM/F-12 medium (3:1) containing 5% FBS, 300 µg/ml G418 and at 37° C. under 5% CO2/95% air atmosphere were trypsinized (0.25% trypsin) and plated into white opaque 96-well cell culture plates (25000 cells/well). After 24 hr, cells (in DMEM/F-12 medium+2% FBS) were treated with various concentrations of compounds, dissolved in DMSO. The final DMSO concentration remained at 0.01% (v/v). After 48 hr treatment, the medium was removed, cells were lysed with 50 µl of lysis buffer (From Luciferase reporter assay system, Roche Diagnostics, Indianapolis, Ind.) and assayed for luciferase activity using the Luciferase Reporter Gene Assay kit from Boehringer Mannheim as per manufacturer's specifications.

The test system of a further data set is KERtr cells. As to the kind of experiment: Keratinocyte proliferation assay. Particulars: Homo sapiens, 72 hr, BrdU incorporation, read-out: Kera. Prolif. IC50. The class given is cell-based. The method, then: 5. The Keratinocyte Proliferation Assay
This Assay is indicative for the treatment of psoriasis.
(5) The Keratinocyte Proliferation Assay:
KERtr cells (Human skin keratinocyte transformed with a retrovirus vector, obtained from ATCC) were plated in 96-well flat-bottomed plates (3000 cells/well) in 100 µl keratinocyte serum free medium supplemented with bovine pituitary extract in the absence of EGF (Life Technologies, Rockville, Md.) and incubated at 37° C. for two days. The cells were treated with various concentrations of VDR ligands (ten-fold serial dilution from 10,000 nM to 0.1 nM in triplicate), dissolved in 100 µl keratinocyte serum free medium supplemented with bovine pituitary extract in the absence of EGF and incubated at 37° C. for 72 hr. BrdU (5-bromo-2′-deoxyuridine) incorporation was analyzed as a measure of DNA replication (Cell proliferation ELISA kit, Roche Diagnostics, Indianapolis, Ind.) and absorbance was measured at 405 nm. Potency values (IC50) values were determined as the concentration (nM) of compound that elicited a half-maximal response.
Background: Uptake of a labelled nucleoside into DNA is a usual measure of proliferation.

Data set [2] concerns IL-10 production in PBMCs. Nature of the data set: Human IL-10 induction assay. The data set is classed as cell-based. Particulars: PBMC; TPA/PHA treated human PBMCs, IL-10 in supernatant by immunoassay. The text has this:
6. The IL-10 Induction Assay
This is an in vitro efficacy assay for psoriasis, abscess and adhesion. Psoriasis involves both keratinocytes and immune cells. IL-10 is a unique cytokine because it is anti-inflammatory and immunosuppressive. This assay tells us whether a VDRM is able to function as an agonist in PBMCs (primary blood mononuclear cells) or not. A lower EC50 value is desirable in this assay since a compound with a lower EC50 value will be a better agonist in PBMCs. […] 7. Other Compound Assay Standards An alternative measure of the efficacy of compounds of the invention for treatment of osteoporosis is a numerical ratio calculated as follows: • Dose Threshold needed to induce hypercalcemia • divided by • Dose Threshold needed for bone efficacy An alternative measure of the efficacy of compounds of the invention for treatment of psoriasis is a numerical ratio calculated as follows: • Dose Threshold needed to induce hypercalcemia • divided by • Dose Threshold needed to induce keratinocyte proliferation For the above ratios, Dose Thresholds are determined from dose response curve data. 8. The CaT1 (Calcium Transport Protein 1) Assay The CaT1 Assay is an indicator for the undesirable condition of hypercalcemia. The higher the EC50 values for a compound the less calcemic it will be in vivo. […] Preferred assay results are greater than 1000 nM. Details of the Assay Methods: (1) Materials and Method for RXR-VDR Heterodimerization Assay: Transfection Method:
(6) Materials and Method for Human IL-10 Induction Assay:
Isolation of peripheral blood mononuclear cells (PBMCs): • A. Collect 50 ml of human blood and dilute with media, RPMI-1640. • B. Prepare sterile tubes with ficol. • C. Add diluted blood to tubes. • D. Centrifuge. • E. Discard the top layer and collect the cells from middle layer. • F. Divide all cells into four tubes and add media. • G. Centrifuge. • H. Aspirate off media and resuspend. • I. Collect all cells • J. Centrifuge. at 1200 rpm for 10 minutes. • K. Resuspend in RPMI-1640 with 2% FBS and count cells
Stimulation of PBMC: • L. Prepare TPA in DMSO. • M. Dissolve PHA in water. • N. Plate TPA/PHA treated PBMCs in well plates. • O. Incubate.
Treatment: • P. Prepare all compound dilutions in plain RPMI-1640 media. • Q. Add diluted compound. • R. Incubate.
Sample Collection and Assay: • S. Remove all the cells by centrifugation and assay the supernatant for IL-10 by immunoassay. • 1) T. Perform IL-10 assay using anti-human IL-10 antibody coated beads, as described by the manufacturer (Linco Research Inc., St. Charles, Mo.).

The next data set concerns the target T1, VDR (pGal4-VDR-LBD) (Homo sapiens, UniProt P11473).
T1 construct: the receptor expression vector pGal4-VDR-LBD (10 ng); expressed in transfected cells; host or cells: Caco-2 cells
T1 sequence (P11473 127-423 limits assumed): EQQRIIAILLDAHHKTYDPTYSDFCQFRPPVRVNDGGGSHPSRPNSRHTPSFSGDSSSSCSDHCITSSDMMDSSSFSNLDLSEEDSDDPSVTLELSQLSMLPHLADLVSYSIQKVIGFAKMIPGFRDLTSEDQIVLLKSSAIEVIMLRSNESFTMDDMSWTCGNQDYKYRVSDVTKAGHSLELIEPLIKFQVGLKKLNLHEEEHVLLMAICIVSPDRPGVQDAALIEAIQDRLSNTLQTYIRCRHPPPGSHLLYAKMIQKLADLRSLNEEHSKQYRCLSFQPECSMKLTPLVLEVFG
As to the kind of experiment: VDR CTF (Caco-2 cell co-transfection assay). The class given is cell-based. As to conditions: Caco-2 cells, Gal4-responsive reporter pFRLuc; surrogate for calcemic activity. The method, then: 2. The Caco-2 Cell Co-Transfection Assay:
The Caco-2 cell assay is an indicator for the undesirable condition of hypercalcemia. This co-transfection assay is a surrogate assay for in vivo calcemic activity of VDR ligands. […] Preferred assay results are greater than 1000 nM.
(2) Materials and Method for the Caco-2 Cell Assay:
Caco-2 cells, grown in phenol red free, DMEM (Invitrogen, Carlsbad, Calif.) containing 10% charcoal-stripped FCS (Hyclone, Logan, Utah), were transfected with Fugene 6 reagent (Roche Diagnostics, Indianapolis, Ind.). Cells (5000/well) were plated 18 h before transfection in a 96 well plate. The Cells were transfected with Gal4-responsive reporter pFRLuc (150 ng, Stratagene, La Jolla Calif.) and the receptor expression vector pGal4-VDR-LBD (10 ng), along with Fugene 6 reagent (0.2 μl/well). The DNA-Fugene complex was formed by incubating the mixture for 30 min at room temperature. The cells were transfected in triplicate for 5 h, and treated with various concentrations of VDR ligands (form 0.01 nM to 10,000 nM concentration range) 18 h post-transfection. The luciferase activity was quantified using Steady-Glo reagent kit (Promega, Madison, Wis.) as per manufacturer's specifications.

pEC50, pIC50: −log10 of the molar value.

A word on the pEC50: it is the negative decadic logarithm of the EC50, by convention in mol/L. A word on the pIC50: it is the IC50 on a negative log10 scale, so that one unit is a factor of ten.

On to `C=C1/C(=C\C=C2/CCC[C@]3(C)[C@@H]([C@H](C)CCCC(C)(C)O)CC[C@@H]23)C[C@@H](O)C[C@@H]1O` [AA, 1α,25-dihydroxyvitamin D3, reference compound], for which the “Mouse Hypercal” value in data set [1] was 0.06 µg/kg/day.

For the compound `CCC(CC)(c1ccc(OCC(O)CO)c(C)c1)c1ccc(OCC(O)C(C)(C)C)c(C)c1` (stereo not drawn) [BB, 3-(4-{1-Ethyl-1-[4-(2-hydroxy-3,3-dimethyl-butoxy)-3-methyl-phenyl]-propyl}-2-methyl-phenoxy)-propane-1,2-diol, reference compound], in the data set on rat osteocalcin promoter (Rattus norvegicus, 48 h), the pEC50 was 8.08. Further, in data set [1], the “Mouse Hypercal” value is 20 µg/kg/day. Besides, the pIC50 was 8.00 in the data set with KERtr cells and 7.55 in data set [2].

Regarding `CCC(CC)(c1ccc(OCC(=O)C(C)(C)C)c(C)c1)c1ccc(OCC(=O)C(C)(C)C)c(C)c1` [DD, reference compound], the pEC50 with rat osteocalcin promoter (Rattus norvegicus, 48 h) is 7.51. For the same compound, the “Mouse Hypercal” value in data set [1] was 1000 µg/kg/day. Moreover, in the data set on KERtr cells, the pIC50 was 5.97.

As to `CCC(CC)(c1ccc(OCC(=O)C(C)(C)C)c(C)c1)c1ccc(OC[C@H](O)C(C)(C)C)c(C)c1` [EE, reference compound], the pEC50 in the data set with rat osteocalcin promoter (Rattus norvegicus, 48 h) was 6.47. Further, the “Mouse Hypercal” value in data set [1] is 1000 µg/kg/day.

As for `CCC(O)(C#Cc1ccc(C(CC)(CC)c2ccc(C(=O)NC(C)(C)C(=O)O)c(C)c2)cc1C)CC` [Ex. 2, 2-(4-{1-Ethyl-1-[4-(3-ethyl-3-hydroxy-pent-1-ynyl)-3-methyl-phenyl]-propyl}-2-methyl-benzoylamino)-2-methyl-propionic acid], the pEC50 on VDR (pGal4-VDR-LBD) was 6.40; with rat osteocalcin promoter it was 8.77; in the data set with rat osteocalcin promoter (Rattus norvegicus, 48 h) it was 8.92. In data set [1], the “Mouse Hypercal” value was 300 µg/kg/day. Further, the pIC50 with KERtr cells is 7.68; in data set [2], 7.62.

For the compound `C=C1/C(=C\C=C2/CCC[C@]3(C)[C@@H]([C@H](C)/C=C/[C@@H](O)C4CC4)CC[C@@H]23)C[C@@H](O)C[C@@H]1O` [FF, calcipotriol, reference compound], the pIC50 with KERtr cells is 6.99; in data set [2] it was 9.30.

Source of the values: US7595345B2, “Vitamin D receptor modulators” (Eli Lilly and Company, priority 2003, dated 2009).
